Source: PubChem BioAssay AID2060892 (Molecular Pharmacology Branch, DTP, NCI, 2025)

Test system: HOP-62 complex spheroids with HUVEC/MSC, viability
Assay: Anticancer human tumor HOP-62 cell line growth inhibition [RAS];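 also: spheroids exposed to agents for seven days before readout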;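 as to viability, T/C: 100% = DMSO vehicle control viability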
Conditions: for IC50: curve of first compound; for viability, T/C: stronger effect = lower value; active = viability on the fitted dose curve at most 10% of control; inactive = the rest
Summary of the method: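 Tumour cells grown as complex spheroids with HUVEC endothelial cells and mesenchymal stem cells, treated with RAS pathway inhibitor combinations. Each agent spans half-log steps from near clinical Cmax, or 10 microM where Cmax is unknown.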

[1] = second compound 0.000949 µM, first compound 0.0316 µM
[2] = second compound 0.000949 µM, first compound 0.1 µM
[3] = second compound 0.000949 µM, first compound 0.316 µM
[4] = second compound 0.000949 µM, first compound 1 µM
[5] = second compound 0.000949 µM, first compound 3.16 µM
[6] = second compound 0.000949 µM, first compound 10 µM
[7] = second compound 0.003 µM, first compound 0.0316 µM
[8] = second compound 0.003 µM, first compound 0.1 µM
[9] = second compound 0.003 µM, first compound 0.316 µM
[10] = second compound 0.003 µM, first compound 1 µM
[11] = second compound 0.003 µM, first compound 3.16 µM
[12] = second compound 0.003 µM, first compound 10 µM
[13] = second compound 0.00949 µM, first compound 0.0316 µM
[14] = second compound 0.00949 µM, first compound 0.1 µM
[15] = second compound 0.00949 µM, first compound 0.316 µM
[16] = second compound 0.00949 µM, first compound 1 µM
[17] = second compound 0.00949 µM, first compound 3.16 µM
[18] = second compound 0.00949 µM, first compound 10 µM
[19] = second compound 0.03 µM, first compound 0.0316 µM
[20] = second compound 0.03 µM, first compound 0.1 µM
[21] = second compound 0.03 µM, first compound 0.316 µM
[22] = second compound 0.03 µM, first compound 1 µM
[23] = second compound 0.03 µM, first compound 3.16 µM
[24] = second compound 0.03 µM, first compound 10 µM
[25] = second compound 0.0949 µM, first compound 0.0316 µM
[26] = second compound 0.0949 µM, first compound 0.1 µM
[27] = second compound 0.0949 µM, first compound 0.316 µM
[28] = second compound 0.0949 µM, first compound 1 µM
[29] = second compound 0.0949 µM, first compound 3.16 µM
[30] = second compound 0.0949 µM, first compound 10 µM
[31] = second compound 0.3 µM, first compound 0.0316 µM
[32] = second compound 0.3 µM, first compound 0.1 µM
[33] = second compound 0.3 µM, first compound 0.316 µM
[34] = second compound 0.3 µM, first compound 1 µM
[35] = second compound 0.3 µM, first compound 3.16 µM
[36] = second compound 0.3 µM, first compound 10 µM

CC(C)NCC(C(=O)N1CCN(c2ncnc3c2C(C)CC3O)CC1)c1ccc(Cl)cc1 (stereo not drawn) + CCn1c(-c2cc(N3CCN(C)CC3)cnc2C(C)OC)c2c3cc(ccc31)-c1csc(n1)CC(NC(=O)C1CC1C)C(=O)N1CCCC(N1)C(=O)OCC(C)(C)C2
2300 nM: IC50 (second compound 0.003 µM)
3880 nM: IC50 (second compound 0.000949 µM)
587 nM: IC50 (second compound 0.00949 µM)
< 31.6 nM: IC50 (second compound 0.03 µM) | IC50 (second compound 0.0949 µM) | IC50 (second compound 0.3 µM)
inactive: viability, T/C [1] 121% | viability, T/C [2] 119% | viability, T/C [3] 80.8% | viability, T/C [4] 88.9% | viability, T/C [5] 60% | viability, T/C [6] 19.1% | viability, T/C [7] 100% | viability, T/C [8] 95% | viability, T/C [9] 71.2% | viability, T/C [10] 71.3% | viability, T/C [11] 44.1% | viability, T/C [12] 17% | viability, T/C [13] 74.7% | viability, T/C [14] 56.9% | viability, T/C [15] 58.5% | viability, T/C [16] 48.6% | viability, T/C [17] 21.5% | viability, T/C [18] 12.3% | viability, T/C [19] 46.9% | viability, T/C [20] 46.3% | viability, T/C [21] 38.3% | viability, T/C [22] 31.7% | viability, T/C [23] 14.8% | viability, T/C [24] 15.3% | viability, T/C [25] 34.7% | viability, T/C [26] 40.6% | viability, T/C [27] 30.4% | viability, T/C [28] 30.9% | viability, T/C [29] 15% | viability, T/C [30] 13.9% | viability, T/C [31] 34.2% | viability, T/C [32] 38.6% | viability, T/C [33] 29.6% | viability, T/C [34] 22.4% | viability, T/C [35] 19.2% | viability, T/C [36] 14.5%

CC(C)n1nc(-c2ccc3oc(N)nc3c2)c2c(N)ncnc21 + CCn1c(-c2cc(N3CCN(C)CC3)cnc2C(C)OC)c2c3cc(ccc31)-c1csc(n1)CC(NC(=O)C1CC1C)C(=O)N1CCCC(N1)C(=O)OCC(C)(C)C2
inactive: viability, T/C (second compound 0.000949 µM, first compound 0.000316 µM) 122% | viability, T/C (second compound 0.000949 µM, first compound 0.001 µM) 111% | viability, T/C (second compound 0.000949 µM, first compound 0.00316 µM) 71.4% | viability, T/C (second compound 0.000949 µM, first compound 0.01 µM) 71.8% | viability, T/C [1] 59.5% | viability, T/C [2] 28.3% | viability, T/C (second compound 0.003 µM, first compound 0.000316 µM) 96.2% | viability, T/C (second compound 0.003 µM, first compound 0.001 µM) 81.7% | viability, T/C (second compound 0.003 µM, first compound 0.00316 µM) 59% | viability, T/C (second compound 0.003 µM, first compound 0.01 µM) 65.4% | viability, T/C [7] 44.9% | viability, T/C [8] 23.2% | viability, T/C (second compound 0.00949 µM, first compound 0.000316 µM) 64.9% | viability, T/C (second compound 0.00949 µM, first compound 0.001 µM) 56.1% | viability, T/C (second compound 0.00949 µM, first compound 0.00316 µM) 58.6% | viability, T/C (second compound 0.00949 µM, first compound 0.01 µM) 48.9% | viability, T/C [13] 30.7% | viability, T/C [14] 24% | viability, T/C (second compound 0.03 µM, first compound 0.000316 µM) 52.5% | viability, T/C (second compound 0.03 µM, first compound 0.001 µM) 48.5% | viability, T/C (second compound 0.03 µM, first compound 0.00316 µM) 40% | viability, T/C (second compound 0.03 µM, first compound 0.01 µM) 32.6% | viability, T/C [19] 21.7% | viability, T/C [20] 22.1% | viability, T/C (second compound 0.0949 µM, first compound 0.000316 µM) 38.1% | viability, T/C (second compound 0.0949 µM, first compound 0.001 µM) 36.4% | viability, T/C (second compound 0.0949 µM, first compound 0.00316 µM) 35.8% | viability, T/C (second compound 0.0949 µM, first compound 0.01 µM) 37.5% | viability, T/C [25] 20.6% | viability, T/C [26] 24.6% | viability, T/C (second compound 0.3 µM, first compound 0.000316 µM) 37.8% | viability, T/C (second compound 0.3 µM, first compound 0.001 µM) 35% | viability, T/C (second compound 0.3 µM, first compound 0.00316 µM) 34.4% | viability, T/C (second compound 0.3 µM, first compound 0.01 µM) 27.7% | viability, T/C [31] 26.5% | viability, T/C [32] 24.8%
15.3 nM: IC50 (second compound 0.003 µM)
32.8 nM: IC50 (second compound 0.000949 µM)
8.38 nM: IC50 (second compound 0.00949 µM)
< 0.316 nM: IC50 (second compound 0.0949 µM) | IC50 (second compound 0.3 µM)
0.644 nM: IC50 (second compound 0.03 µM)

CC(Nc1ccc2c(c1)OCCn1cc(N3C(=O)OCC3C(F)F)nc1-2)C(N)=O (stereo not drawn) + CCn1c(-c2cc(N3CCN(C)CC3)cnc2C(C)OC)c2c3cc(ccc31)-c1csc(n1)CC(NC(=O)C1CC1C)C(=O)N1CCCC(N1)C(=O)OCC(C)(C)C2
1370 nM: IC50 (second compound 0.000949 µM)
< 31.6 nM: IC50 (second compound 0.00949 µM) | IC50 (second compound 0.03 µM) | IC50 (second compound 0.0949 µM) | IC50 (second compound 0.3 µM)
365 nM: IC50 (second compound 0.003 µM)
inactive: viability, T/C [1] 91.4% | viability, T/C [2] 69.2% | viability, T/C [3] 53.9% | viability, T/C [4] 61% | viability, T/C [5] 49.9% | viability, T/C [6] 25.9% | viability, T/C [7] 75.9% | viability, T/C [8] 52.7% | viability, T/C [9] 47.5% | viability, T/C [10] 46.2% | viability, T/C [11] 36.7% | viability, T/C [12] 15.7% | viability, T/C [13] 48.4% | viability, T/C [14] 36.8% | viability, T/C [15] 36.1% | viability, T/C [16] 27.4% | viability, T/C [17] 19.2% | viability, T/C [18] 12.6% | viability, T/C [19] 33.1% | viability, T/C [20] 23.2% | viability, T/C [21] 22.5% | viability, T/C [22] 21.5% | viability, T/C [23] 13.8% | viability, T/C [24] 14.7% | viability, T/C [25] 27.1% | viability, T/C [26] 24.8% | viability, T/C [27] 20.5% | viability, T/C [28] 21.5% | viability, T/C [29] 12.8% | viability, T/C [30] 14% | viability, T/C [31] 32.5% | viability, T/C [32] 20.1% | viability, T/C [33] 21.3% | viability, T/C [34] 17.3% | viability, T/C [35] 13.4% | viability, T/C [36] 15.7%

C[C@@H](NC(=O)c1ncnc(N)c1Cl)c1ncc(C(=O)Nc2cc(C(F)(F)F)c(Cl)cn2)s1 + CCn1c(-c2cc(N3CCN(C)CC3)cnc2C(C)OC)c2c3cc(ccc31)-c1csc(n1)CC(NC(=O)C1CC1C)C(=O)N1CCCC(N1)C(=O)OCC(C)(C)C2
< 31.6 nM: IC50 (second compound 0.3 µM)
342 nM: IC50 (second compound 0.0949 µM)
inactive: viability, T/C [1] 111% | viability, T/C [2] 119% | viability, T/C [3] 93.4% | viability, T/C [4] 115% | viability, T/C [5] 114% | viability, T/C [6] 74.6% | viability, T/C [7] 107% | viability, T/C [8] 101% | viability, T/C [9] 96.7% | viability, T/C [10] 104% | viability, T/C [11] 94.7% | viability, T/C [12] 60.6% | viability, T/C [13] 80.9% | viability, T/C [14] 99.5% | viability, T/C [15] 76.4% | viability, T/C [16] 83.7% | viability, T/C [17] 75.9% | viability, T/C [18] 51.3% | viability, T/C [19] 65.9% | viability, T/C [20] 56.7% | viability, T/C [21] 62.1% | viability, T/C [22] 66.4% | viability, T/C [23] 47.8% | viability, T/C [24] 57% | viability, T/C [25] 46.9% | viability, T/C [26] 56.4% | viability, T/C [27] 48.2% | viability, T/C [28] 54.4% | viability, T/C [29] 38.6% | viability, T/C [30] 55% | viability, T/C [31] 47.7% | viability, T/C [32] 49.6% | viability, T/C [33] 43.9% | viability, T/C [34] 41.3% | viability, T/C [35] 45.4% | viability, T/C [36] 47.3%
> 10000 nM: IC50 (second compound 0.000949 µM) | IC50 (second compound 0.003 µM) | IC50 (second compound 0.00949 µM) | IC50 (second compound 0.03 µM)
